This assay deals with Coagulation factor XI (Homo sapiens, UniProt P03951). The experiment in a line: Inhibition Assay: The effectiveness of compounds of the present invention as inhibitors of the coagulation factors XIa, Vila, IXa, Xa, Xlla, plasma kallikrein or thrombin, can be determined using a relevant purified serine protease, respectively, and an appropriate synthetic substrate. The rate of hydrolysis of the chromogenic or fluorogenic substrate by the relevant serine protease was measured both in the absence and presence of compounds of the present invention. […] A decrease in the rate of absorbance or fluorescence change in the presence of inhibitor is indicative of enzyme inhibition. Such methods are known to one skilled in the art.
Sequence of Coagulation factor XI (P03951 19-387 limits assumed): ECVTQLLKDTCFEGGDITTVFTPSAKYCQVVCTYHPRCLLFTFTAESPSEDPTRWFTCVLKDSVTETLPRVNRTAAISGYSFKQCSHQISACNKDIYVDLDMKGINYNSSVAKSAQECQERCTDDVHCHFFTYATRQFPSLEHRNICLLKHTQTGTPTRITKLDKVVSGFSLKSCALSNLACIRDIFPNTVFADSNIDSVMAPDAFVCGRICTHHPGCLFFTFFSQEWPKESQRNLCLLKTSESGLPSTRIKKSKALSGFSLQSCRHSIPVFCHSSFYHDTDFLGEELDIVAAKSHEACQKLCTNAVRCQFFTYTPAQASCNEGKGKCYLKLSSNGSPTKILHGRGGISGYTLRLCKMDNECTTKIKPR
Sequence of Coagulation factor XI (P03951 388-625 limits assumed): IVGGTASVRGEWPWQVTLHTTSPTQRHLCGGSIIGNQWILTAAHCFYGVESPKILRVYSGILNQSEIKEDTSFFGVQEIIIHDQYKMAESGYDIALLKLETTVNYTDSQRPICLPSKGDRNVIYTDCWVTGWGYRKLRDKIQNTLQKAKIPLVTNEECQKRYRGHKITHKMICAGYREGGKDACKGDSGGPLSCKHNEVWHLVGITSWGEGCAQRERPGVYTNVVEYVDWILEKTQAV

As for `COC(=O)Nc1cccc(NC(=O)[C@@H]2c3ccccc3CCN2C(=O)/C=C/c2cc(Cl)ccc2-n2cnnn2)c1`, the Ki (as a rule, a dissociation constant, usually derived from enzyme kinetics or from competition with a known ligand) was 2.79 µM.

These data come from ChEMBL document CHEMBL3638470, “Substituted 5,6,7,8-tetrahydro-1,6-naphthyridines as factor XIa inhibitors” (2015).
